Assay results: US20250100997A1, “PYRIDAZINYL AMINO DERIVATIVES AS ALK5 INHIBITORS” (CHIESI FARMACEUTICI S.P.A., priority 2022, published 2025)

The molecules below were run against T1, human ALK5 (recombinant TGF β1 N-term GST-tagged, 80-end) (Homo sapiens, UniProt P36897) (assay: ADP-GLO kinase assay, biochemical ALK5 assay). Settings: pIC50 converted to pKi using the Cheng-Prusoff equation, ATP at Km, or high ATP (30-fold Km) for very potent compounds, 25° C.
T1 construct: human ALK5 (recombinant TGF β1 N-term GST-tagged, 80-end); GST (N); purchased
T1 sequence (P36897 80-503 limits assumed): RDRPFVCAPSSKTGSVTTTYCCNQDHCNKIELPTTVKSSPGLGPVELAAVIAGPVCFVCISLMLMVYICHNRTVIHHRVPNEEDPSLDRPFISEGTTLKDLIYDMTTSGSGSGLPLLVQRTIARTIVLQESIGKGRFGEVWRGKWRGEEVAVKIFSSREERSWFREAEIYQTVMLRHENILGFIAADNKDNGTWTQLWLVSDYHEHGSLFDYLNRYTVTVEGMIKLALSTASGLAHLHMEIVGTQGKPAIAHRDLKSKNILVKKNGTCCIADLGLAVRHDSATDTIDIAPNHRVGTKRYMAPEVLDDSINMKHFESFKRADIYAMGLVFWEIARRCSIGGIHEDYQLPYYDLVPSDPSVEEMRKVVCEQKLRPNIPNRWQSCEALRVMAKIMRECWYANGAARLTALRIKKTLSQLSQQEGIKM
Protocol: The enzymatic activity of compounds of the present invention was monitored measuring the formation of ADP using the ADP-GLO Kinases assay. Following the incubation of the purified enzyme, a substrate and ATP, the produced ADP was converted into ATP, which in turn was converted into light by Ultra-Glo Luciferase. The luminescent signal positively correlated with ADP amount and kinase activity. Briefly, the kinase reaction was performed by incubating 2.6 nM of the purified, commercially available human ALK5 (recombinant TGF β1 N-term GST-tagged, 80-end), a final concentration of TGFβ1 peptide 94.5 μM (Promega, T36-58) and ultra-pure ATP (Promega V915B). The ATP concentration was set at the Km value (concentration of substrate which permits the enzyme to achieve half maximal velocity (Vmax)) of ALK5 (0.5 μM). Compound and ALK5 kinase were mixed and incubated for 15 mins. Reactions were initiated by addition of ATP at a final concentration in the assay of […]. After an incubation of 120 min, the reaction was stopped, and ADP production detected with ADP-Glo kit according to manufacturer's indications. To overcome the assay wall limit for very potent compounds the assay protocol was changed by using a high ATP concentration (30-fold Km). Compounds and ALK5 kinase were mixed for 15 min and the reaction initiated by addition of TGFβ1 peptide and ATP at a final concentration in the assay of 15 μM. After an incubation of 60 min, the kinase reaction was stopped, and ADP production detected with ADP-Glo kit according to manufacturer's indications.
All reaction and incubation steps were performed at 25° C. and the assays were performed in 384-well format and validated using a selection of reference compounds tested in 11-point concentration-response curve.
Results were expressed as pIC50 (negative logarithm of IC50) and subsequently converted to pKi (negative logarithm of […]) using the Cheng-Prusoff equation. The higher the value of pKi, the greater the inhibition of ALK5 activity.

Row | Compound | Ki [nM]
1 | CN1CCN(CCC(=O)Nc2cc(Nc3cc(-c4cc(Cl)ccc4F)nnc3C3CCOC3)ccn2)CC1 (stereo not shown) [Example 21, N-(4-((6-(5-chloro-2-fluorophenyl)-3-(tetrahydrofuran-3-yl)pyridazin-4-yl)amino)pyridin-2-yl)-3-(4-methylpiperazin-1-yl)propanamide] | 0.126 to 0.794
2 | CN1CCN(CCC(=O)Nc2cc(Nc3cc(-c4cc(Cl)ccc4F)nnc3C3=CCN(C(=O)OC(C)(C)C)CC3)ccn2)CC1 [Example 1, tert-butyl 4-[6-(5-chloro-2-fluorophenyl)-4-({2-[3-(4-methylpiperazin-1-yl)propanamido]pyridin-4-yl}amino)pyridazin-3-yl]-1,2,3,6-tetrahydropyridine-1-carboxylate] | 1 to 3.16
3 | CN1CCN(CCC(=O)Nc2cc(Nc3cc(-c4cc(Cl)ccc4F)nnc3C3CCC(=O)S3)ccn2)CC1 (stereo not shown) [Example 19, N-(4-((6-(5-chloro-2-fluorophenyl)-3-(5-oxotetrahydrothiophen-2-yl)pyridazin-4-yl)amino)pyridin-2-yl)-3-(4-methylpiperazin-1-yl)propanamide] | 0.126 to 0.794
4 | CN1CCN(CCC(=O)Nc2cc(Nc3cc(-c4cc(Cl)ccc4F)nnc3C3CCN3)ccn2)CC1 (stereo not shown) [Example 16, N-(4-{[3-(azetidin-2-yl)-6-(5-chloro-2-fluorophenyl)pyridazin-4-yl]amino}pyridin-2-yl)-3-(4-methylpiperazin-1-yl)propanamide] | 0.126 to 0.794
5 | CN1CCN(CCC(=O)Nc2cc(Nc3cc(-c4cc(Cl)ccc4F)nnc3C3=CCCN(C)C3)ccn2)CC1 [Example 13, N-(4-{[6-(5-chloro-2-fluorophenyl)-3-(1-methyl-1,2,5,6-tetrahydropyridin-3-yl)pyridazin-4-yl]amino}pyridin-2-yl)-3-(4-methylpiperazin-1-yl)propanamide] | 1 to 3.16
6 | Fc1ccc(Cl)cc1-c1cc(Nc2ccc3ncsc3c2)c(C2=CCNCC2)nn1 [Example C1, N-[6-(5-chloro-2-fluorophenyl)-3-(1,2,3,6-tetrahydropyridin-4-yl)pyridazin-4-yl]-1,3-benzothiazol-6-amine, reference compound] | 60.3
7 | CN1CCN(CCC(=O)Nc2cc(Nc3cc(-c4cc(Cl)ccc4F)nnc3C3CCC(=O)N3C)ccn2)CC1 (stereo not shown) [Example 17, N-(4-((6-(5-chloro-2-fluorophenyl)-3-(1-methyl-5-oxopyrrolidin-2-yl)pyridazin-4-yl)amino)pyridin-2-yl)-3-(4-methylpiperazin-1-yl)propanamide] | 1 to 3.16
8 | CN1CCN(CCC(=O)Nc2cc(Nc3cc(-c4cc(Cl)ccc4F)nnc3C3CCO3)ccn2)CC1 (stereo not shown) [Example 18, N-(4-{[6-(5-chloro-2-fluorophenyl)-3-(oxetan-2-yl)pyridazin-4-yl]amino}pyridin-2-yl)-3-(4-methylpiperazin-1-yl)propanamide] | 0.126 to 0.794
9 | CN1CCC(c2nnc(-c3cc(Cl)ccc3F)cc2Nc2ccnc(NC(=O)CCN3CCN(C)CC3)c2)CC1 [Example 8, N-(4-{[6-(5-chloro-2-fluorophenyl)-3-(1-methylpiperidin-4-yl)pyridazin-4-yl]amino}pyridin-2-yl)-3-(4-methylpiperazin-1-yl)propanamide] | 1 to 3.16
10 | CN1CCN(CCC(=O)Nc2cc(Nc3cc(-c4cc(Cl)ccc4F)nnc3C3CCCS3)ccn2)CC1 (stereo not shown) [Example 22, N-(4-((6-(5-chloro-2-fluorophenyl)-3-(tetrahydrothiophen-2-yl)pyridazin-4-yl)amino)pyridin-2-yl)-3-(4-methylpiperazin-1-yl)propanamide] | 0.126 to 0.794
11 | CN1CC=C(c2nnc(-c3cc(Cl)ccc3F)cc2Nc2ccnc(NC(=O)CCN3CCN(C)CC3)c2)CC1 [Example 6, N-(4-{[6-(5-chloro-2-fluorophenyl)-3-(1-methyl-1,2,3,6-tetrahydropyridin-4-yl)pyridazin-4-yl]amino}pyridin-2-yl)-3-(4-methylpiperazin-1-yl)propanamide] | 1 to 3.16
12 | COC(=O)N1CC=C(c2nnc(-c3cc(Cl)ccc3F)cc2Nc2ccnc(NC(=O)CCN3CCN(C)CC3)c2)CC1 [Example 5, methyl 4-[6-(5-chloro-2-fluorophenyl)-4-({2-[3-(4-methylpiperazin-1-yl)propanamido]pyridin-4-yl}amino)pyridazin-3-yl]-1,2,3,6-tetrahydropyridine-1-carboxylate] | 1 to 3.16
13 | CN1CCN(CCC(=O)Nc2cc(Nc3cc(-c4cc(Cl)ccc4F)nnc3C3CCN(C(=O)OC(C)(C)C)CC3)ccn2)CC1 [Example 2, tert-butyl 4-[6-(5-chloro-2-fluorophenyl)-4-({2-[3-(4-methylpiperazin-1-yl)propanamido]pyridin-4-yl}amino)pyridazin-3-yl]piperidine-1-carboxylate] | 1 to 3.16
14 | CN1CCN(CCC(=O)Nc2cc(Nc3cc(-c4cc(Cl)ccc4F)nnc3C3CCN3C(=O)OC(C)(C)C)ccn2)CC1 (stereo not shown) [Example 15, tert-butyl 2-[6-(5-chloro-2-fluorophenyl)-4-({2-[3-(4-methylpiperazin-1-yl)propanamido]pyridin-4-yl}amino)pyridazin-3-yl]azetidine-1-carboxylate] | 0.126 to 0.794
15 | CN1CCN(CCC(=O)Nc2cc(Nc3cc(-c4cc(Cl)ccc4F)nnc3C3CCNCC3)ccn2)CC1 [Example 4, N-(4-{[6-(5-chloro-2-fluorophenyl)-3-(piperidin-4-yl)pyridazin-4-yl]amino}pyridin-2-yl)-3-(4-methylpiperazin-1-yl)propanamide] | 0.126 to 0.794
16 | CN1CCN(CCC(=O)Nc2cc(Nc3cc(-c4cc(Cl)ccc4F)nnc3C3=CCNCC3)ccn2)CC1 [Example 3, N-(4-{[6-(5-chloro-2-fluorophenyl)-3-(1,2,3,6-tetrahydropyridin-4-yl)pyridazin-4-yl]amino}pyridin-2-yl)-3-(4-methylpiperazin-1-yl)propanamide] | 1 to 3.16
17 | CN1CCN(CCC(=O)Nc2cc(Nc3cc(-c4cc(Cl)ccc4F)nnc3C3CN(C(=O)OC(C)(C)C)C3)ccn2)CC1 [Example 9, tert-butyl 3-[6-(5-chloro-2-fluorophenyl)-4-({2-[3-(4-methylpiperazin-1-yl)propanamido]pyridin-4-yl}amino)pyridazin-3-yl]azetidine-1-carboxylate] | 0.126 to 0.794
18 | CN1CCN(CCC(=O)Nc2cc(Nc3cc(-c4cc(Cl)ccc4F)nnc3C3CNC3)ccn2)CC1 [Example 10, N-(4-{[3-(azetidin-3-yl)-6-(5-chloro-2-fluorophenyl)pyridazin-4-yl]amino}pyridin-2-yl)-3-(4-methylpiperazin-1-yl)propanamide] | 0.126 to 0.794
19 | CC(=O)N1CCC=C(c2nnc(-c3cc(Cl)ccc3F)cc2Nc2ccnc(NC(=O)CCN3CCN(C)CC3)c2)C1 [Example 14, N-(4-{[3-(1-acetyl-1,2,5,6-tetrahydropyridin-3-yl)-6-(5-chloro-2-fluorophenyl)pyridazin-4-yl]amino}pyridin-2-yl)-3-(4-methylpiperazin-1-yl)propanamide] | 1 to 3.16
20 | CN1CCN(CCC(=O)Nc2cc(Nc3cc(-c4cc(Cl)ccc4F)nnc3C3COC(C)(C)N3C(=O)OC(C)(C)C)ccn2)CC1 (stereo not shown) [Example 20, tert-butyl 4-(6-(5-chloro-2-fluorophenyl)-4-((2-(3-(4-methylpiperazin-1-yl)propanamido)pyridin-4-yl)amino)pyridazin-3-yl)-2,2-dimethyloxazolidine-3-carboxylate] | 0.126 to 0.794
21 | CN1CCN(CCC(=O)Nc2cc(Nc3cc(-c4cc(Cl)ccc4F)nnc3C3=CCCNC3)ccn2)CC1 [Example 12, N-(4-{[6-(5-chloro-2-fluorophenyl)-3-(1,2,5,6-tetrahydropyridin-3-yl)pyridazin-4-yl]amino}pyridin-2-yl)-3-(4-methylpiperazin-1-yl)propanamide] | 1 to 3.16
22 | CN1CCN(CCC(=O)Nc2cc(Nc3cc(-c4cc(Cl)ccc4F)nnc3C3=CCCN(C(=O)OC(C)(C)C)C3)ccn2)CC1 [Example 11, tert-butyl 5-[6-(5-chloro-2-fluorophenyl)-4-({2-[3-(4-methylpiperazin-1-yl)propanamido]pyridin-4-yl}amino)pyridazin-3-yl]-1,2,3,6-tetrahydropyridine-1-carboxylate] | 0.126 to 0.794
